From patent publication US20260000656A1, “ANTIFUNGAL AGENTS WITH ENHANCED ACTIVITY IN ACIDIC PH” (Scynexis, Inc., priority 2017, published 2026)
In brackets after ≈: the same amount, converted by molar mass. Read-outs that look alike come from different tables or passages of the source.

Legend:
C. albicans isolates = assay: Broth microdilution susceptibility (CLSI M27-A3) at different medium pH; assay type: cell-based, Candida albicans; conditions: for MIC range / MIC50 / MIC90: 10 vaginal isolates; for MIC90: read-out: MIC90; for MIC: read-out: MIC (50% inhibition)
Method: (§1) Ten strains each of C. glabrata and C. albicans vaginal isolates were tested. The strains were obtained from recent clinical trial patients with vulvovaginal candidiasis (VVC) prior to treatment. Candida strains were obtained from the Mycology Reference Library (MRL) at Case Western Reserve University School of Medicine, Ohio, United States.
(§2) Susceptibility testing was performed using a broth microdilution method, according to CLSI M27-A3 guidelines (CLSI. 2008. Reference Method for Broth Dilution Antifungal Susceptibility Testing of Yeasts; Approved Standard—Third Edition. Clinical and Laboratory Standards Institute, CLSI document M27-A3). Antifungals and concentrations tested were SCY-078 and micafungin (both at concentrations within the range of 0.015 to 8 μg/ml) and fluconazole (at concentrations within the range of 0.125 to 64 μg/ml). A 0.1-ml C. albicans and C. glabrata inoculum of 0.5-2.5×10^3 blastospores/ml in RPMI 1640 medium was added to each microdilution well. ATCC strains of Candida parapsilosis and Candida krusei QC isolates were also included concurrently to ensure quality control. Antifungal susceptibility testing was carried out for each isolate in RPMI 1640 at pH 7 (to mimic RPMI medium used in testing the susceptibility of yeast by the CLSI M-27A3 document), pH 5.7, and pH 4.5 (to mimic the pH of the vaginal cavity) by adjusting the pH of the media using NaOH or HCl. […] Agents Chemother., 43: 1383-1386 (1999).
(§3) […] SCY-078 powder was manufactured by Avista, Laboratories, NC. Micafungin and fluconazole were sourced from LGM Pharma.

C. glabrata isolates = assay: as above; assay type: cell-based, Candida glabrata; conditions: for MIC range: 50% inhibition; for MIC range / MIC50 / MIC90: 10 vaginal isolates; for MIC50 / MIC90 / MIC: Nakaseomyces glabratus, 24 h; for MIC50: read-out: MIC50; for MIC90: read-out: MIC90; for MIC: read-out: MIC (50% inhibition)
Method: as §1, §2, §3

[1] = pH 4.5, 50% inhibition, pH 4.5, 24 h
[2] = pH 5.72, 50% inhibition, pH 5.72, 24 h
[3] = pH 7, 50% inhibition, pH 7.0, 24 h

SMILES: OC(Cn1cncn1)(Cn1cncn1)c1ccc(F)cc1F [Fluconazole, reference compound]
- MIC range (C. albicans isolates; 50% inhibition, pH 4.5, 24 h): 0.25 to 8 µg/mL
- MIC50 (C. albicans isolates; 50% inhibition, pH 5.72, 24 h): < 0.125 µg/mL
- MIC range (C. albicans isolates; 50% inhibition, pH 5.72, 24 h): <0.125 to 1 µg/mL
- MIC range (C. albicans isolates; 50% inhibition, pH 7.0, 24 h): <0.125 to 1 µg/mL
- MIC50 (C. albicans isolates; Candida albicans, 24 h, pH 4.5, 50% inhibition, pH 4.5, 24 h, read-out: MIC50): 0.25 µg/mL (≈ 0.816 µM)
- MIC90 (C. albicans isolates; Candida albicans, 24 h, pH 4.5, 50% inhibition, pH 4.5, 24 h): 1 µg/mL (≈ 3.27 µM)
- MIC (C. albicans isolates; Candida albicans, 24 h, pH 4.5, C. albicans MRL 34366, pH 4.5, 24 hours): 0.25 µg/mL (≈ 0.816 µM)
- MIC (C. albicans isolates; Candida albicans, 24 h, pH 4.5, C. albicans MRL 34367, pH 4.5, 24 hours): 1 µg/mL (≈ 3.27 µM)
- MIC (C. albicans isolates; Candida albicans, 24 h, pH 4.5, C. albicans MRL 34372, pH 4.5, 24 hours): 0.25 µg/mL (≈ 0.816 µM)
- MIC (C. albicans isolates; Candida albicans, 24 h, pH 4.5, C. albicans MRL 34373, pH 4.5, 24 hours): 0.5 µg/mL (≈ 1.63 µM)
- MIC (C. albicans isolates; Candida albicans, 24 h, pH 4.5, C. albicans MRL 34374, pH 4.5, 24 hours): 0.25 µg/mL (≈ 0.816 µM)
- MIC (C. albicans isolates; Candida albicans, 24 h, pH 4.5, C. albicans MRL 34385, pH 4.5, 24 hours): 0.25 µg/mL (≈ 0.816 µM)
- MIC (C. albicans isolates; Candida albicans, 24 h, pH 4.5, C. albicans MRL 34389, pH 4.5, 24 hours): 0.5 µg/mL (≈ 1.63 µM)
- MIC (C. albicans isolates; Candida albicans, 24 h, pH 4.5, C. albicans MRL 34399, pH 4.5, 24 hours): 8 µg/mL (≈ 26.1 µM)
- MIC (C. albicans isolates; Candida albicans, 24 h, pH 4.5, C. albicans MRL 34408, pH 4.5, 24 hours): 0.25 µg/mL (≈ 0.816 µM)
- MIC (C. albicans isolates; Candida albicans, 24 h, pH 4.5, C. albicans MRL 34449, pH 4.5, 24 hours): 0.5 µg/mL (≈ 1.63 µM)
- MIC50 (C. albicans isolates; Candida albicans, 24 h, pH 5.72, 50% inhibition, pH 5.72, 24 h, read-out: MIC50): < 0.125 µg/mL
- MIC90 (C. albicans isolates; Candida albicans, 24 h, pH 5.72, 50% inhibition, pH 5.72, 24 h): 0.25 µg/mL (≈ 0.816 µM)
- MIC (C. albicans isolates; Candida albicans, 24 h, pH 5.72, C. albicans MRL 34366, pH 5.72, 24 hours): < 0.125 µg/mL
- MIC (C. albicans isolates; Candida albicans, 24 h, pH 5.72, C. albicans MRL 34367, pH 5.72, 24 hours): 0.25 µg/mL (≈ 0.816 µM)
- MIC (C. albicans isolates; Candida albicans, 24 h, pH 5.72, C. albicans MRL 34372, pH 5.72, 24 hours): < 0.125 µg/mL
- MIC (C. albicans isolates; Candida albicans, 24 h, pH 5.72, C. albicans MRL 34373, pH 5.72, 24 hours): < 0.125 µg/mL
- MIC (C. albicans isolates; Candida albicans, 24 h, pH 5.72, C. albicans MRL 34374, pH 5.72, 24 hours): < 0.125 µg/mL
- MIC (C. albicans isolates; Candida albicans, 24 h, pH 5.72, C. albicans MRL 34385, pH 5.72, 24 hours): < 0.125 µg/mL
- MIC (C. albicans isolates; Candida albicans, 24 h, pH 5.72, C. albicans MRL 34389, pH 5.72, 24 hours): < 0.125 µg/mL
- MIC (C. albicans isolates; Candida albicans, 24 h, pH 5.72, C. albicans MRL 34399, pH 5.72, 24 hours): 1 µg/mL (≈ 3.27 µM)
- MIC (C. albicans isolates; Candida albicans, 24 h, pH 5.72, C. albicans MRL 34408, pH 5.72, 24 hours): 0.25 µg/mL (≈ 0.816 µM)
- MIC (C. albicans isolates; Candida albicans, 24 h, pH 5.72, C. albicans MRL 34449, pH 5.72, 24 hours): < 0.125 µg/mL
- MIC50 (C. albicans isolates; Candida albicans, 24 h, pH 7, 50% inhibition, pH 7.0, 24 h, read-out: MIC50): 0.25 µg/mL (≈ 0.816 µM)
- MIC90 (C. albicans isolates; Candida albicans, 24 h, pH 7, 50% inhibition, pH 7.0, 24 h): 0.25 µg/mL (≈ 0.816 µM)
- MIC (C. albicans isolates; Candida albicans, 24 h, pH 7, C. albicans MRL 34366, pH 7.0, 24 hours): < 0.125 µg/mL
- MIC (C. albicans isolates; Candida albicans, 24 h, pH 7, C. albicans MRL 34367, pH 7.0, 24 hours): 0.25 µg/mL (≈ 0.816 µM)
- MIC (C. albicans isolates; Candida albicans, 24 h, pH 7, C. albicans MRL 34372, pH 7.0, 24 hours): < 0.125 µg/mL
- MIC (C. albicans isolates; Candida albicans, 24 h, pH 7, C. albicans MRL 34373, pH 7.0, 24 hours): 0.25 µg/mL (≈ 0.816 µM)
- MIC (C. albicans isolates; Candida albicans, 24 h, pH 7, C. albicans MRL 34374, pH 7.0, 24 hours): 0.25 µg/mL (≈ 0.816 µM)
- MIC (C. albicans isolates; Candida albicans, 24 h, pH 7, C. albicans MRL 34385, pH 7.0, 24 hours): < 0.125 µg/mL
- MIC (C. albicans isolates; Candida albicans, 24 h, pH 7, C. albicans MRL 34389, pH 7.0, 24 hours): < 0.125 µg/mL
- MIC (C. albicans isolates; Candida albicans, 24 h, pH 7, C. albicans MRL 34399, pH 7.0, 24 hours): 1 µg/mL (≈ 3.27 µM)
- MIC (C. albicans isolates; Candida albicans, 24 h, pH 7, C. albicans MRL 34408, pH 7.0, 24 hours): 0.25 µg/mL (≈ 0.816 µM)
- MIC (C. albicans isolates; Candida albicans, 24 h, pH 7, C. albicans MRL 34449, pH 7.0, 24 hours): 0.25 µg/mL (≈ 0.816 µM)
- MIC range (C. glabrata isolates; pH 4.5, 24 h): 1 to 16 µg/mL
- MIC range (C. glabrata isolates; pH 5.72, 24 h): 2 to 16 µg/mL
- MIC range (C. glabrata isolates; pH 7.0, 24 h): 0.5 to 2 µg/mL
- increase in MIC50, pH 7 compared to pH 4.5 (C. glabrata isolates; C. glabrata isolates): 8 fold
- MIC50 (C. glabrata isolates; [1]): 8 µg/mL (≈ 26.1 µM)
- MIC90 (C. glabrata isolates; [1]): 16 µg/mL (≈ 52.2 µM)
- MIC (C. glabrata isolates; pH 4.5, C. glabrata MRL 32075, pH 4.5, 24 hours): 8 µg/mL (≈ 26.1 µM)
- MIC (C. glabrata isolates; pH 4.5, C. glabrata MRL 32232, pH 4.5, 24 hours): 8 µg/mL (≈ 26.1 µM)
- MIC (C. glabrata isolates; pH 4.5, C. glabrata MRL 32626, pH 4.5, 24 hours): 8 µg/mL (≈ 26.1 µM)
- MIC (C. glabrata isolates; pH 4.5, C. glabrata MRL 32993, pH 4.5, 24 hours): 16 µg/mL (≈ 52.2 µM)
- MIC (C. glabrata isolates; pH 4.5, C. glabrata MRL 33204, pH 4.5, 24 hours): 8 µg/mL (≈ 26.1 µM)
- MIC (C. glabrata isolates; pH 4.5, C. glabrata MRL 33960, pH 4.5, 24 hours): 16 µg/mL (≈ 52.2 µM)
- MIC (C. glabrata isolates; pH 4.5, C. glabrata MRL 33961, pH 4.5, 24 hours): 1 µg/mL (≈ 3.27 µM)
- MIC (C. glabrata isolates; pH 4.5, C. glabrata MRL 34339, pH 4.5, 24 hours): 8 µg/mL (≈ 26.1 µM)
- MIC (C. glabrata isolates; pH 4.5, C. glabrata MRL 34407, pH 4.5, 24 hours): 8 µg/mL (≈ 26.1 µM)
- MIC (C. glabrata isolates; pH 4.5, C. glabrata MRL 34576, pH 4.5, 24 hours): 16 µg/mL (≈ 52.2 µM)
- MIC50 (C. glabrata isolates; [2]): 8 µg/mL (≈ 26.1 µM)
- MIC90 (C. glabrata isolates; [2]): 16 µg/mL (≈ 52.2 µM)
- MIC (C. glabrata isolates; pH 5.72, C. glabrata MRL 32075, pH 5.72, 24 hours): 8 µg/mL (≈ 26.1 µM)
- MIC (C. glabrata isolates; pH 5.72, C. glabrata MRL 32232, pH 5.72, 24 hours): 8 µg/mL (≈ 26.1 µM)
- MIC (C. glabrata isolates; pH 5.72, C. glabrata MRL 32626, pH 5.72, 24 hours): 8 µg/mL (≈ 26.1 µM)
- MIC (C. glabrata isolates; pH 5.72, C. glabrata MRL 32993, pH 5.72, 24 hours): 16 µg/mL (≈ 52.2 µM)
- MIC (C. glabrata isolates; pH 5.72, C. glabrata MRL 33204, pH 5.72, 24 hours): 8 µg/mL (≈ 26.1 µM)
- MIC (C. glabrata isolates; pH 5.72, C. glabrata MRL 33960, pH 5.72, 24 hours): 16 µg/mL (≈ 52.2 µM)
- MIC (C. glabrata isolates; pH 5.72, C. glabrata MRL 33961, pH 5.72, 24 hours): 2 µg/mL (≈ 6.53 µM)
- MIC (C. glabrata isolates; pH 5.72, C. glabrata MRL 34339, pH 5.72, 24 hours): 2 µg/mL (≈ 6.53 µM)
- MIC (C. glabrata isolates; pH 5.72, C. glabrata MRL 34407, pH 5.72, 24 hours): 8 µg/mL (≈ 26.1 µM)
- MIC (C. glabrata isolates; pH 5.72, C. glabrata MRL 34576, pH 5.72, 24 hours): 8 µg/mL (≈ 26.1 µM)
- MIC50 (C. glabrata isolates; [3]): 1 µg/mL (≈ 3.27 µM)
- MIC90 (C. glabrata isolates; [3]): 2 µg/mL (≈ 6.53 µM)
- MIC (C. glabrata isolates; pH 7, C. glabrata MRL 32075, pH 7.0, 24 hours): 2 µg/mL (≈ 6.53 µM)
- MIC (C. glabrata isolates; pH 7, C. glabrata MRL 32232, pH 7.0, 24 hours): 2 µg/mL (≈ 6.53 µM)
- MIC (C. glabrata isolates; pH 7, C. glabrata MRL 32626, pH 7.0, 24 hours): 1 µg/mL (≈ 3.27 µM)
- MIC (C. glabrata isolates; pH 7, C. glabrata MRL 32993, pH 7.0, 24 hours): 2 µg/mL (≈ 6.53 µM)
- MIC (C. glabrata isolates; pH 7, C. glabrata MRL 33204, pH 7.0, 24 hours): 2 µg/mL (≈ 6.53 µM)
- MIC (C. glabrata isolates; pH 7, C. glabrata MRL 33960, pH 7.0, 24 hours): 1 µg/mL (≈ 3.27 µM)
- MIC (C. glabrata isolates; pH 7, C. glabrata MRL 33961, pH 7.0, 24 hours): 1 µg/mL (≈ 3.27 µM)
- MIC (C. glabrata isolates; pH 7, C. glabrata MRL 34339, pH 7.0, 24 hours): 0.5 µg/mL (≈ 1.63 µM)
- MIC (C. glabrata isolates; pH 7, C. glabrata MRL 34407, pH 7.0, 24 hours): 1 µg/mL (≈ 3.27 µM)
- MIC (C. glabrata isolates; pH 7, C. glabrata MRL 34576, pH 7.0, 24 hours): 1 µg/mL (≈ 3.27 µM)
